Measurements published in publication PMC10538245, “Fragment merging approach for design, synthesis, and biological assessment of urea/acetyl hydrazide clubbed thienopyrimidine derivatives as GSK-3β inhibitors” (BMC Chemistry, 2023).

Columns and labels:
[1] = biological target: GSK-3β (Homo sapiens, UniProt P49841); assay: GSK-3β kinase inhibition, Z'-LYTE FRET assay (Thermo Fisher SelectScreen); type: biochemical; conditions: for inhibition at 100 µM: 100 μM single dose
[2] = tested on: SN12C; assay: NCI 60-cell line one dose antiproliferative assay; type: cell-based; conditions: Homo sapiens, Renal Cancer, 10 µM one dose, read-out: Percent inhibition (cell growth inhibition %)
Text: (§1) The National Cancer Institute "NCI", NIH, Bethesda, Maryland, USA (www.dtp.nci.nih.gov) chose six of the final compounds for the Developmental Therapeutic Program (DTP), codes (5a, 5b, 5c, 5d, 6a, 6b). The NCI screening service will favor compounds with drug-like modes of action based on computer-aided design. Selection The criterion for screening is the possibility of the submitted compounds to provide diversity to the NCI small molecule chemical collection. This screen employs 60 different Leukemia, melanoma, and additional tumor cell lines of the human from brain, kidney, lung, ovary, colon, breast, and prostate cancers. All compounds were picked based on their NCI codes. NSC: D-820696/1, NSC: D-820697/1, NSC: D-820698/1, NSC: D-820699/1, NSC: D-820700/1, NSC: D-820701/1. The initial 10 µM one dose percent inhibition assay was performed on the entire NCI 60 cell panel to examine the different chemotypes of this work. The results are presented as a percentage of cell growth on each of the 60 NCI cell line panels for each of the investigated substances in Table 2.
(§2) The NCI cancer screening procedure includes a comparison of all substances to the sixty NCI cell line panel representing leukemia, NSCLC, cell lines from breast cancer, prostate cancer, melanoma, CNS cancer, renal cancer, ovarian cancer, and colon cancer at a single point of 10 uM. The results of the single-dose screen can be presented using a mean graph.

[3] = tested on: IGROV1; assay: NCI 60-cell line one dose antiproliferative assay; type: cell-based; conditions: Homo sapiens, IGROV-1; IGROV1, Ovarian Cancer, 10 µM one dose; read-out: Percent inhibition (cell growth inhibition %)
Text: as §1, §2

[4] = tested on: CAKI-1; assay: NCI 60-cell line one dose antiproliferative assay; type: cell-based; conditions: Homo sapiens; CAKI-1, Renal Cancer, 10 µM one dose; read-out: Percent inhibition (cell growth inhibition %)
Text: as §1, §2

[5] = tested on: BT-549; assay: NCI 60-cell line one dose antiproliferative assay; type: cell-based; conditions: Homo sapiens; BT-549, Breast Cancer, 10 µM one dose; read-out: Percent inhibition (cell growth inhibition %)
Text: as §1, §2

[6] = tested on: UO-31; assay: NCI 60-cell line one dose antiproliferative assay; type: cell-based; conditions: Homo sapiens; UO-31, Renal Cancer, 10 µM one dose; read-out: Percent inhibition (cell growth inhibition %)
Text: as §1, §2

[7] = tested on: A498; assay: NCI 60-cell line one dose antiproliferative assay; type: cell-based; conditions: Homo sapiens; A498, Renal Cancer, 10 µM one dose; read-out: Percent inhibition (cell growth inhibition %)
Text: as §1, §2

[8] = tested on: EKVX; assay: NCI 60-cell line one dose antiproliferative assay; type: cell-based; conditions: Homo sapiens, Non-Small Cell Lung Cancer, 10 µM one dose, read-out: Percent inhibition (cell growth inhibition %)
Text: as §1, §2

[9] = tested on: SNB-75; assay: NCI 60-cell line one dose antiproliferative assay; type: cell-based; conditions: Homo sapiens; SNB-75, CNS Cancer, 10 µM one dose; read-out: Percent inhibition (cell growth inhibition %)
Text: as §1, §2

[10] = tested on: SNB-19; assay: NCI 60-cell line one dose antiproliferative assay; type: cell-based; conditions: Homo sapiens; SNB-19, CNS Cancer, 10 µM one dose; read-out: Percent inhibition (cell growth inhibition %)
Text: as §1, §2

[11] = tested on: MDA-MB-435; assay: NCI 60-cell line one dose antiproliferative assay; type: cell-based; conditions: Homo sapiens; MDA-MB-435, Melanoma, 10 µM one dose; read-out: Percent inhibition (cell growth inhibition %)
Text: as §1, §2

[12] = tested on: A549/ ATCC; assay: NCI 60-cell line one dose antiproliferative assay; type: cell-based; conditions: Homo sapiens, Non-Small Cell Lung Cancer, 10 µM one dose, read-out: Percent inhibition (cell growth inhibition %)
Text: as §1, §2

[13] = tested on: 786–0; assay: NCI 60-cell line one dose antiproliferative assay; type: cell-based; conditions: Homo sapiens; 786–0, Renal Cancer, 10 µM one dose; read-out: Percent inhibition (cell growth inhibition %)
Text: as §1, §2

[14] = tested on: K-562; assay: NCI 60-cell line one dose antiproliferative assay; type: cell-based; conditions: Homo sapiens, K562; K-562, Leukemia, 10 µM one dose; read-out: Percent inhibition (cell growth inhibition %)
Text: as §1, §2

[15] = tested on: SF-539; assay: NCI 60-cell line one dose antiproliferative assay; type: cell-based; conditions: Homo sapiens; SF-539, CNS Cancer, 10 µM one dose; read-out: Percent inhibition (cell growth inhibition %)
Text: as §1, §2

[16] = tested on: HCT-116; assay: NCI 60-cell line one dose antiproliferative assay; type: cell-based; conditions: Homo sapiens; HCT-116, Colon Cancer, 10 µM one dose; read-out: Percent inhibition (cell growth inhibition %)
Text: as §1, §2

[17] = tested on: MOLT-4; assay: NCI 60-cell line one dose antiproliferative assay; type: cell-based; conditions: Homo sapiens; MOLT-4, Leukemia, 10 µM one dose; read-out: Percent inhibition (cell growth inhibition %)
Text: as §1, §2

[18] = tested on: SR; assay: NCI 60-cell line one dose antiproliferative assay; type: cell-based; conditions: Homo sapiens, Leukemia, 10 µM one dose, read-out: Percent inhibition (cell growth inhibition %)
Text: as §1, §2

[19] = tested on: OVCAR-5; assay: NCI 60-cell line one dose antiproliferative assay; type: cell-based; conditions: Homo sapiens; OVCAR-5, Ovarian Cancer, 10 µM one dose; read-out: Percent inhibition (cell growth inhibition %)
Text: as §1, §2

[20] = tested on: NCI-H522; assay: NCI 60-cell line one dose antiproliferative assay; type: cell-based; conditions: Homo sapiens; NCI-H522, Non-Small Cell Lung Cancer, 10 µM one dose; read-out: Percent inhibition (cell growth inhibition %)
Text: as §1, §2

[21] = tested on: LOX IMVI; assay: NCI 60-cell line one dose antiproliferative assay; type: cell-based; conditions: Homo sapiens, Melanoma, 10 µM one dose, read-out: Percent inhibition (cell growth inhibition %)
Text: as §1, §2

[22] = tested on: NCI-H23; assay: NCI 60-cell line one dose antiproliferative assay; type: cell-based; conditions: Homo sapiens; NCI-H23, Non-Small Cell Lung Cancer, 10 µM one dose; read-out: Percent inhibition (cell growth inhibition %)
Text: as §1, §2

[23] = tested on: U251; assay: NCI 60-cell line one dose antiproliferative assay; type: cell-based; conditions: Homo sapiens, U-251; U251, CNS Cancer, 10 µM one dose; read-out: Percent inhibition (cell growth inhibition %)
Text: as §1, §2

[24] = tested on: MDA-MB-231/ATCC; assay: NCI 60-cell line one dose antiproliferative assay; type: cell-based; conditions: Homo sapiens, Breast Cancer, 10 µM one dose, read-out: Percent inhibition (cell growth inhibition %)
Text: as §1, §2

[25] = tested on: HS 578 T; assay: NCI 60-cell line one dose antiproliferative assay; type: cell-based; conditions: Homo sapiens, Breast Cancer, 10 µM one dose, read-out: Percent inhibition (cell growth inhibition %)
Text: as §1, §2

[26] = tested on: SF-268; assay: NCI 60-cell line one dose antiproliferative assay; type: cell-based; conditions: Homo sapiens; SF-268, CNS Cancer, 10 µM one dose; read-out: Percent inhibition (cell growth inhibition %)
Text: as §1, §2

[27] = tested on: UACC-62; assay: NCI 60-cell line one dose antiproliferative assay; type: cell-based; conditions: Homo sapiens; UACC-62, Melanoma, 10 µM one dose; read-out: Percent inhibition (cell growth inhibition %)
Text: as §1, §2

[28] = tested on: MCF7; assay: NCI 60-cell line one dose antiproliferative assay; type: cell-based; conditions: Homo sapiens; MCF7, Breast Cancer, 10 µM one dose; read-out: Percent inhibition (cell growth inhibition %)
Text: as §1, §2

[29] = tested on: SK-MEL-5; assay: NCI 60-cell line one dose antiproliferative assay; type: cell-based; conditions: Homo sapiens; SK-MEL-5, Melanoma, 10 µM one dose; read-out: Percent inhibition (cell growth inhibition %)
Text: as §1, §2

[30] = tested on: NCI-H460; assay: NCI 60-cell line one dose antiproliferative assay; type: cell-based; conditions: Homo sapiens; NCI-H460, Non-Small Cell Lung Cancer, 10 µM one dose; read-out: Percent inhibition (cell growth inhibition %)
Text: as §1, §2

[31] = tested on: NCI-H226; assay: NCI 60-cell line one dose antiproliferative assay; type: cell-based; conditions: Homo sapiens; NCI-H226, Non-Small Cell Lung Cancer, 10 µM one dose; read-out: Percent inhibition (cell growth inhibition %)
Text: as §1, §2

[32] = tested on: NCI-H322M; assay: NCI 60-cell line one dose antiproliferative assay; type: cell-based; conditions: Homo sapiens, Non-Small Cell Lung Cancer, 10 µM one dose, read-out: Percent inhibition (cell growth inhibition %)
Text: as §1, §2

[33] = tested on: T-47D; assay: NCI 60-cell line one dose antiproliferative assay; type: cell-based; conditions: Homo sapiens, T47D, Breast Cancer, 10 µM one dose, read-out: Percent inhibition (cell growth inhibition %)
Text: as §1, §2

[34] = tested on: PC-3; assay: NCI 60-cell line one dose antiproliferative assay; type: cell-based; conditions: Homo sapiens; PC-3, Prostate Cancer, 10 µM one dose; read-out: Percent inhibition (cell growth inhibition %)
Text: as §1, §2

[35] = tested on: RXF 393; assay: NCI 60-cell line one dose antiproliferative assay; type: cell-based; conditions: Homo sapiens; RXF 393, Renal Cancer, 10 µM one dose; read-out: Percent inhibition (cell growth inhibition %)
Text: as §1, §2

[36] = tested on: MDA-MB-468; assay: NCI 60-cell line one dose antiproliferative assay; type: cell-based; conditions: Homo sapiens; MDA-MB-468, Breast Cancer, 10 µM one dose; read-out: Percent inhibition (cell growth inhibition %)
Text: as §1, §2

[37] = tested on: SW-620; assay: NCI 60-cell line one dose antiproliferative assay; type: cell-based; conditions: Homo sapiens; SW-620, Colon Cancer, 10 µM one dose; read-out: Percent inhibition (cell growth inhibition %)
Text: as §1, §2

Chain of GSK-3β (P49841 whole entry): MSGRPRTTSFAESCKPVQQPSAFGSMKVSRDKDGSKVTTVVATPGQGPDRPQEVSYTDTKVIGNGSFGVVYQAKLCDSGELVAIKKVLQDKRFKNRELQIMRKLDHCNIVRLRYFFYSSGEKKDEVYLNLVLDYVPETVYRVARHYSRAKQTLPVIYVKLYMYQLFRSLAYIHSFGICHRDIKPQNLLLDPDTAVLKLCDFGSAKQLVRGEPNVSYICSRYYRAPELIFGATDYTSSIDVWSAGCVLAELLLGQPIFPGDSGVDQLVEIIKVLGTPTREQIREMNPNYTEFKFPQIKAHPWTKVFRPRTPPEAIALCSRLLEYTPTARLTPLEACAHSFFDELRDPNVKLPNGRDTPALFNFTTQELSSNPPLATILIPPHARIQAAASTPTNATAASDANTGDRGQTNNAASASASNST

| Structure (SMILES) | melting point | inhibition at 100 µM [1] | inhibition at 10 µM [3] | inhibition at 10 µM [4] | inhibition at 10 µM [6] | inhibition at 10 µM [7] | inhibition at 10 µM [9] | inhibition at 10 µM [10] | inhibition at 10 µM [12] | inhibition at 10 µM [17] | inhibition at 10 µM [19] | inhibition at 10 µM [20] | inhibition at 10 µM [21] | inhibition at 10 µM [25] | inhibition at 10 µM [26] | inhibition at 10 µM [27] | inhibition at 10 µM [28] | also measured |
| --- | --- | --- | --- | --- | --- | --- | --- | --- | --- | --- | --- | --- | --- | --- | --- | --- | --- | --- |
| O=C(COc1ncnc2sc3c(c12)CCCC3)NN=Cc1ccc(Br)cc1 [5c, N'-(4-Bromobenzylidene)-2-((5,6,7,8-tetrahydrobenzo[4,5]thieno[2,3-d]pyrimidin-4-yl)oxy)acetohydrazide] | 290 to 292 °C | 43% | 2.52% | 16.7% | 16.6% | 21.3% | 13.6% | 5.53% | 1.87% | 9.38% | 10% | 10.3% | 3.68% | 7.31% | 5.08% | 6.58% | 8.67% | inhibition at 10 µM [2]: 3.09%; inhibition at 10 µM [5]: 2.58%; inhibition at 10 µM [8]: 3.66%; inhibition at 10 µM [11]: 0.85%; inhibition at 10 µM [13]: 5.22%; inhibition at 10 µM [14]: 13.5%; inhibition at 10 µM [15]: 1.02%; inhibition at 10 µM [16]: 3.24%; inhibition at 10 µM [18]: 8.29%; inhibition at 10 µM [22]: 0.25%; inhibition at 10 µM [23]: 6.99%; inhibition at 10 µM [24]: 11.2% |
| CN(C)c1ccc(C=NNC(=O)COc2ncnc3sc4c(c23)CCCC4)cc1 [5d, N'-(4-(Dimethylamino)benzylidene)-2-((5,6,7,8-tetrahydrobenzo [4,5]thieno[2,3-d]pyrimidin-4-yl)oxy) acetohydrazide] | 285 °C | 50% | 14.4% | 5.26% | 24% | 48.4% | 18.8% | 3.31% | 1.15% | 0.81% | 8.97% | 4.74% | 2.93% | 5.71% | 1.44% | 5.34% | 7.82% | inhibition at 10 µM ([1]; 10 μM): 5%; inhibition at 10 µM [29]: 0.27%; inhibition at 10 µM [30]: 1.04%; inhibition at 10 µM [31]: 8.81%; inhibition at 10 µM [32]: 3.69%; inhibition at 10 µM [33]: 0.95%; inhibition at 10 µM [34]: 3.93%; inhibition at 10 µM [35]: 7.97%; inhibition at 10 µM [36]: 15.8%; inhibition at 10 µM [37]: 2.39% |
